Test results taken from the NIST ThermoML archive (doi:10.1021/je400055v).

Conditions: Liquid, Vibrating tube method

Cc1ccc(O)cc1 [4-methylphenol]
Conditions	mass density [kg/m3]
312.9 K, 1002 kPa	1019.4
312.9 K, 2016 kPa	1020
312.9 K, 3017 kPa	1020.6
312.9 K, 4016 kPa	1021.1
312.9 K, 5002 kPa	1021.7
312.9 K, 6010 kPa	1022.2
312.9 K, 7000 kPa	1022.8
312.9 K, 8006 kPa	1023.3
312.9 K, 9001 kPa	1023.9
312.9 K, 10002 kPa	1024.4
312.9 K, 11006 kPa	1024.9
312.9 K, 12002 kPa	1025.5
312.9 K, 13015 kPa	1026
312.9 K, 14007 kPa	1026.6
312.9 K, 15006 kPa	1027.1
312.9 K, 16019 kPa	1027.6
312.9 K, 17004 kPa	1028.1
312.9 K, 18011 kPa	1028.6
312.9 K, 19009 kPa	1029.2
312.9 K, 20005 kPa	1029.7
312.9 K, 21008 kPa	1030.2
312.9 K, 22004 kPa	1030.7
312.9 K, 23023 kPa	1031.2
312.9 K, 24004 kPa	1031.7
312.9 K, 25006 kPa	1032.2
322.78 K, 1019 kPa	1011.6
322.78 K, 2015 kPa	1012.2
322.78 K, 3002 kPa	1012.8
322.78 K, 4013 kPa	1013.4
322.78 K, 5011 kPa	1013.9
322.78 K, 6018 kPa	1014.5
322.78 K, 7022 kPa	1015.1
322.78 K, 8001 kPa	1015.7
322.78 K, 9015 kPa	1016.3
322.78 K, 10006 kPa	1016.8
322.78 K, 11002 kPa	1017.4
322.78 K, 12018 kPa	1017.9
322.78 K, 13002 kPa	1018.4
322.78 K, 14016 kPa	1019
322.78 K, 15001 kPa	1019.5
322.78 K, 16000 kPa	1020.1
322.78 K, 17001 kPa	1020.6
322.78 K, 18029 kPa	1021.2
322.78 K, 19015 kPa	1021.7
322.78 K, 20011 kPa	1022.2
322.78 K, 21022 kPa	1022.8
322.78 K, 22002 kPa	1023.3
322.78 K, 23006 kPa	1023.8
322.78 K, 24010 kPa	1024.4
322.78 K, 25023 kPa	1024.9
332.54 K, 1040 kPa	1003.7
332.54 K, 2019 kPa	1004.3
332.54 K, 3013 kPa	1005
332.54 K, 4019 kPa	1005.6
332.54 K, 5001 kPa	1006.2
332.54 K, 6001 kPa	1006.8
332.54 K, 7002 kPa	1007.5
332.54 K, 8041 kPa	1008.1
332.54 K, 9000 kPa	1008.7
332.54 K, 10001 kPa	1009.2
332.54 K, 11006 kPa	1009.7
332.54 K, 12001 kPa	1010.4
332.54 K, 13008 kPa	1010.9
332.54 K, 14004 kPa	1011.5
332.54 K, 15003 kPa	1012.1
332.54 K, 16015 kPa	1012.7
332.54 K, 17011 kPa	1013.3
332.54 K, 18014 kPa	1013.9
332.54 K, 19014 kPa	1014.4
332.54 K, 20009 kPa	1014.9
332.54 K, 21013 kPa	1015.4
332.54 K, 22007 kPa	1016
332.54 K, 23000 kPa	1016.6
332.54 K, 24001 kPa	1017.1
332.54 K, 25032 kPa	1017.7
342.37 K, 1001 kPa	995.7
342.37 K, 2002 kPa	996.4
342.37 K, 3004 kPa	997.1
342.37 K, 4025 kPa	997.7
342.37 K, 5036 kPa	998.2
342.37 K, 6032 kPa	998.8
342.37 K, 7001 kPa	999.3
342.37 K, 8020 kPa	999.9
342.37 K, 9003 kPa	1000.6
342.37 K, 10002 kPa	1001.3
342.37 K, 11036 kPa	1001.9
342.37 K, 12001 kPa	1002.6
342.37 K, 13020 kPa	1003.2
342.37 K, 14019 kPa	1003.9
342.37 K, 15007 kPa	1004.5
342.37 K, 16000 kPa	1005.1
342.37 K, 17022 kPa	1005.6
342.37 K, 18014 kPa	1006.2
342.37 K, 19033 kPa	1006.8
342.37 K, 20005 kPa	1007.4
342.37 K, 21005 kPa	1007.9
342.37 K, 22010 kPa	1008.4
342.37 K, 22962 kPa	1009
342.37 K, 24021 kPa	1009.7
342.37 K, 25017 kPa	1010.2
352.15 K, 1023 kPa	987.9
352.15 K, 2007 kPa	988.5
352.15 K, 3000 kPa	989.1
352.15 K, 4003 kPa	989.8
352.15 K, 5001 kPa	990.4
352.15 K, 6009 kPa	991.1
352.15 K, 7001 kPa	991.7
352.15 K, 8037 kPa	992.4
352.15 K, 9008 kPa	993
352.15 K, 10040 kPa	993.7
352.15 K, 11006 kPa	994.3
352.15 K, 12001 kPa	994.9
352.15 K, 13001 kPa	995.5
352.15 K, 14009 kPa	996.2
352.15 K, 15000 kPa	996.8
352.15 K, 16010 kPa	997.4
352.15 K, 17028 kPa	998
352.15 K, 18020 kPa	998.6
352.15 K, 19045 kPa	999.3
352.15 K, 20018 kPa	1000
352.15 K, 21038 kPa	1000.5
352.15 K, 22000 kPa	1001.1
352.15 K, 23065 kPa	1001.8
352.15 K, 24024 kPa	1002.4
352.15 K, 25039 kPa	1002.9
361.9 K, 1017 kPa	979.6
361.9 K, 1991 kPa	980.3
361.9 K, 3004 kPa	981
361.9 K, 4027 kPa	981.5
361.9 K, 4992 kPa	982.3
361.9 K, 6000 kPa	983.1
361.9 K, 7033 kPa	983.6
361.9 K, 8010 kPa	984.4
361.9 K, 9001 kPa	985
361.9 K, 9998 kPa	985.8
361.9 K, 10994 kPa	986.5
361.9 K, 11976 kPa	987
361.9 K, 12949 kPa	987.7
361.9 K, 14010 kPa	988.3
361.9 K, 15017 kPa	989
361.9 K, 15992 kPa	989.6
361.9 K, 16992 kPa	990.3
361.9 K, 18007 kPa	990.8
361.9 K, 19034 kPa	991.6
361.9 K, 19992 kPa	992.1
361.9 K, 21000 kPa	992.9
361.9 K, 22059 kPa	993.4
361.9 K, 23020 kPa	994.1
361.9 K, 24014 kPa	994.8
361.9 K, 25002 kPa	995.3
